One experiment addresses T1, Solute carrier family 12 member 5 (Homo sapiens, UniProt Q9H2X9).
T1 sequence (Q9H2X9 whole entry): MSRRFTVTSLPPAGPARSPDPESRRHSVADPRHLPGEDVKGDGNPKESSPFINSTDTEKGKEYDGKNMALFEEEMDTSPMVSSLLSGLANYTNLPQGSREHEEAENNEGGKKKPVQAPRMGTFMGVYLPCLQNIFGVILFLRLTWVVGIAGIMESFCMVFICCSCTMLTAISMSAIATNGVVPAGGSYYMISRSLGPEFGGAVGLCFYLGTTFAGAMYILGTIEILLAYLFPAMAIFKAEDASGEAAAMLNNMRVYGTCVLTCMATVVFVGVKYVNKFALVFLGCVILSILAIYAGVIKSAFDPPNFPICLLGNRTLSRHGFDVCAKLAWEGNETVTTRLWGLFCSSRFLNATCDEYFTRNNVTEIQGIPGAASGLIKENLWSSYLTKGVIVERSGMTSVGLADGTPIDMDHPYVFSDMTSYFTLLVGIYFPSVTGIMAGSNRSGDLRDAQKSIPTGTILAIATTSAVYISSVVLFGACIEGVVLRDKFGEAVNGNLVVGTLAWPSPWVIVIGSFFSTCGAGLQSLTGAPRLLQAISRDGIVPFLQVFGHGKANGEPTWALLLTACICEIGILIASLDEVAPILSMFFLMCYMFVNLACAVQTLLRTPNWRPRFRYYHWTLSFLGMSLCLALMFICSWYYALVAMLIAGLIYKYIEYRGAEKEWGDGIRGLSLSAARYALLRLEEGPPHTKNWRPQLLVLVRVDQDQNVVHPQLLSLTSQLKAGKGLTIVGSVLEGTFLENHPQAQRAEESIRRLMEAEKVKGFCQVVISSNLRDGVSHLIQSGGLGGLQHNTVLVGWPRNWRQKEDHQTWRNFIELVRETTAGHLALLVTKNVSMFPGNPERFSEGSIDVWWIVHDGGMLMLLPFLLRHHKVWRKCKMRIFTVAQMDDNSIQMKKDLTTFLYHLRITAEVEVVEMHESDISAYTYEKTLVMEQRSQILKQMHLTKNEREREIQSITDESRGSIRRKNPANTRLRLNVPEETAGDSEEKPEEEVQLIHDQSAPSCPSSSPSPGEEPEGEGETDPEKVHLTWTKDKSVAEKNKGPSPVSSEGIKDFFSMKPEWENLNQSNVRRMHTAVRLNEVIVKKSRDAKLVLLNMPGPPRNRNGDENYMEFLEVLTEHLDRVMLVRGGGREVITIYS
In words: KCC2 modulator potency by thallium flux, dose response, cell-based, HEK293 KCC2, FluoZin-2 fluorescence (AID 1736).
Details: not given
With `CC(NC(=O)CCc1nnc(-c2ccc(-c3ccccc3)cc2)o1)c1nccs1` (centres undefined) [3-(5-biphenyl-4-yl-1,3,4-oxadiazol-2-yl)-N-[1-(1,3-thiazol-2-yl)ethyl]propanamide], the concentration giving a half-maximal response (EC50) (in general, the concentration giving half of the maximal effect) worked out at 4.79 µM.

As to `COc1cc(OC)c(C2=NOC(C(=O)NCCc3ccccc3)C2)cc1Cl` (centres undefined) [3-(5-chloranyl-2,4-dimethoxy-phenyl)-N-(2-phenylethyl)-4,5-dihydro-1,2-oxazole-5-carboxamide], the midpoint of the response, the EC50, lay at 6.25 µM.

Turning to `CCOc1ccc2nc(Sc3cc(O)n(-c4cccc(OC)c4)c3O)sc2c1` [3-(6-Ethoxy-benzothiazol-2-ylsulfanyl)-1-(3-methoxy-phenyl)-pyrrolidine-2,5-dione], the EC50 was found to be 9.38 µM.

In turn, `COC(=O)c1sccc1NC(=S)OC` [3-(methoxycarbothioylamino)thiophene-2-carboxylic acid methyl ester] displayed a 50% effective concentration (EC50) of 3.94 µM.

Consider `O=C(Nc1ccc(Cc2ccncc2)cc1)c1cccc([N+](=O)[O-])c1` [3-Nitro-N-(4-pyridin-4-ylmethyl-phenyl)-benzamide], for which the concentration for a half-maximal effect (EC50) is 9.28 µM.

Turning to `O=C(O)CCn1c(SCc2cccc3ccccc23)nc2ccccc21` [3-[2-(1-naphthalenylmethylthio)-1-benzimidazolyl]propanoic acid], the concentration giving a half-maximal response (EC50) was found to be 0.619 µM. Against the preceding molecule, the EC50 is about 15-fold lower.

The molecule `O=C(Cn1nnc2c(cnn2-c2ccccc2)c1=O)N1CCN(c2ccccc2F)CC1` [3-[2-[4-(2-fluorophenyl)-1-piperazinyl]-2-oxoethyl]-7-phenyl-4-pyrazolo[3,4-d]triazinone] yielded an EC50 of 15.6 µM.

Take `O=C(O)CCc1cc(I)c(Oc2ccc(O)c(I)c2)c(I)c1` [3-[4-(4-hydroxy-3-iodophenoxy)-3,5-diiodophenyl]propanoic acid]: the concentration giving a half-maximal response (EC50) is 11.1 µM. This EC50 and that of the molecule before are within 1.5-fold of each other.

As to `O=C(O)CCN(Cc1ccccc1)S(=O)(=O)c1c(Cl)cccc1Cl` [3-[(2,6-dichlorophenyl)sulfonyl-(phenylmethyl)amino]propanoic acid], a half-maximal response (EC50) required 53.1 µM.

As to `Cc1ccc(S(=O)(=O)N(CCC(=O)O)Cc2ccc(Cl)cc2)cc1` [3-[(4-chlorobenzyl)-tosyl-amino]propionic acid], the concentration for a half-maximal effect (EC50) is 0.356 µM.

For the molecule `O=C(OCC(=O)N1CCN(C(=O)c2ccco2)CC1)c1sc2ccccc2c1Cl` [3-chloro-1-benzothiophene-2-carboxylic acid [2-[4-[2-furanyl(oxo)methyl]-1-piperazinyl]-2-oxoethyl] ester], the 50% effective concentration (EC50) stood at 0.599 µM.

As to `CCOc1cc(S(=O)(=O)NCc2ccccc2)ccc1F` [3-ethoxy-4-fluoranyl-N-(phenylmethyl)benzenesulfonamide], the half-maximal effective concentration (EC50) is 4.68 µM.

As to `COCCNS(=O)(=O)c1ccc(-c2ccc(Cl)cc2)cc1` [4'-chloro-N-(2-methoxyethyl)-4-biphenylsulfonamide], the EC50 was 7.84 µM.

`Cc1c(N=C2Nc3cccc4cccc2c34)c(=O)n(-c2ccccc2)n1C` [4-(2-benzo[cd]indolylamino)-1,5-dimethyl-2-phenyl-3-pyrazolone] yielded an EC50 of 1.89 µM.

`O=C(OCC(=O)N1CCc2ccccc2C1)c1ccc(N2CCOCC2)c([N+](=O)[O-])c1` [4-(4-morpholinyl)-3-nitrobenzoic acid [2-(3,4-dihydro-1H-isoquinolin-2-yl)-2-oxoethyl] ester] had a 50% effective concentration (EC50) of 5.9 µM.

Regarding `O=C(NC(=S)NNC(=O)c1cnccn1)c1ccc(Cl)cc1` [4-Chloro-N-[N'-(pyrazine-2-carbonyl)-hydrazinocarbothioyl]-benzamide], the concentration for a half-maximal effect (EC50) turned out to be 13 µM.

For the molecule `O=C(c1cc(COc2c(F)cccc2F)on1)N1CCC(c2ccncc2)CC1` [4-[1-({5-[(2,6-difluorophenoxy)methyl]isoxazol-3-yl}carbonyl)piperidin-4-yl]pyridine], a half-maximal response (EC50) required 12.2 µM.

The molecule `COc1ccc(-c2cc(CCCC(=O)NCCc3ccccc3)no2)cc1` [4-[5-(4-methoxyphenyl)-1,2-oxazol-3-yl]-N-(2-phenylethyl)butanamide] showed an EC50 of 1.84 µM.

For the molecule `Cc1n[nH]c(O)c1C(c1ccc(-c2ccc(F)cc2)o1)c1c(C)n[nH]c1O` [4-[[5-(4-fluorophenyl)furan-2-yl]-(3-methyl-5-oxo-1,2-dihydropyrazol-4-yl)methyl]-5-methyl-1,2-dihydropyrazol-3-one], it took 14.3 µM to reach a half-maximal effect (EC50).

`CCOc1cc(Br)ccc1S(=O)(=O)NCc1ccccc1` [4-bromanyl-2-ethoxy-N-(phenylmethyl)benzenesulfonamide] came in with a half-maximal effective concentration (EC50) of 1.36 µM.

With `Cc1nn(-c2ccc(F)cc2)c(C)c1NS(=O)(=O)c1ccc(Cl)cc1` [4-chloranyl-N-[1-(4-fluorophenyl)-3,5-dimethyl-pyrazol-4-yl]benzenesulfonamide], the EC50 is 112 µM.

In the case of `O=S(=O)(Nc1nc2ccccc2nc1N1CCN(c2ccccn2)CC1)c1ccc(Cl)cc1` [4-chloranyl-N-[3-(4-pyridin-2-ylpiperazin-1-yl)quinoxalin-2-yl]benzenesulfonamide], the EC50 amounted to 9.37 µM.

Regarding `COc1ccc(S(=O)(=O)N(C)CC(=O)N2CCN(Cc3ccccc3)CC2)cc1C` [4-methoxy-N,3-dimethyl-N-[2-oxidanylidene-2-[4-(phenylmethyl)piperazin-1-yl]ethyl]benzenesulfonamide], the EC50 was determined as 3.52 µM.

In the case of `O=C(NCC1CCCN(C(=O)c2cccnc2)C1)c1ccc(-c2ccccc2)cc1` (centres undefined) [4-phenyl-N-[(1-pyridin-3-ylcarbonylpiperidin-3-yl)methyl]benzamide], a half-maximal response (EC50) required 0.657 µM.

`Sc1nnc(C2(c3ccccc3)CCCC2)o1` [5-(1-phenylcyclopentyl)-3H-1,3,4-oxadiazole-2-thione]: a half-maximal response (EC50) required 1.54 µM.

In turn, `Sc1nnc(Cc2c[nH]c3ccccc23)o1` [5-(1H-indol-3-ylmethyl)-1,3,4-oxadiazole-2(3H)-thione] showed an EC50 of 3.76 µM.

Regarding `O=C(OCc1ccccn1)c1ccc(COc2ccccc2Cl)o1` [5-(2-Chloro-phenoxymethyl)-furan-2-carboxylic acid pyridin-2-ylmethyl ester], the 50% effective concentration (EC50) was 6.49 µM.

Still in this experiment, the particulars now being: inactive by the depositor's call.
In turn, `Cc1cc(Cl)ccc1Oc1ccccc1C(=O)CC#N` [3-[2-(4-chloranyl-2-methyl-phenoxy)phenyl]-3-oxidanylidene-propanenitrile] gave a half-maximal effective concentration (EC50) of 233 µM.

On to `COc1ccc(S(=O)(=O)N(CCC(=O)O)Cc2ccccc2)cc1` [3-[(4-methoxyphenyl)sulfonyl-(phenylmethyl)amino]propanoic acid], for which the EC50 was found to be 6.36 µM.

As to `O=c1cc(CSc2nnnn2-c2ccccc2)nc2scc(-c3ccccc3)n12` [3-phenyl-7-[(1-phenyl-1,2,3,4-tetrazol-5-yl)sulfanylmethyl]-[1,3]thiazolo[3,2-a]pyrimidin-5-one], the 50% effective concentration (EC50) came to 4610 µM. Against the preceding molecule, the EC50 is about 720-fold higher.

The molecule `O=C(Nc1ccc(Cc2ccncc2)cc1)c1ccc(N2CCOCC2)c([N+](=O)[O-])c1` [4-(4-morpholinyl)-3-nitro-N-[4-(4-pyridinylmethyl)phenyl]benzamide] came in with an EC50 of 101 µM.

As to `O=C(Cn1c(-c2ccccc2)noc1=O)N1CCC(Cc2ccccc2)CC1` [4-[2-(4-benzylpiperidin-1-yl)-2-oxoethyl]-3-phenyl-1,2,4-oxadiazol-5-one], the EC50 was 39.6 µM. This EC50 lies about 2.6-fold lower than the previous one.

In turn, `CCC(C)(C)n1nnnc1C(c1ccc(O)c(OC)c1)N1CCN(c2nc3ccccc3s2)CC1` (centres undefined) [4-[(1-tert-amyltetrazol-5-yl)-[4-(1,3-benzothiazol-2-yl)piperazino]methyl]-2-methoxy-phenol] showed an EC50 of 9.05 µM.

`CC(C)c1onc(C(=O)NCCc2ccccc2)c1[N+](=O)[O-]` [4-nitro-N-(2-phenylethyl)-5-propan-2-yl-1,2-oxazole-3-carboxamide]: the concentration for a half-maximal effect (EC50) is 20.6 µM.

Source of the values: BindingDB's records for doi:10.7270/Q2Q52N1X (Vanderbilt Screening Center for GPCRs, Ion Channels and …, 2009).
